Reference: ChEMBL document CHEMBL5154896, “Discovery of a Novel Class of d-Amino Acid Oxidase Inhibitors Using the Schrödinger Computational Platform” (J Med Chem, 2022)

How the values were obtained:
[1] = target: T1, D-amino-acid oxidase (Homo sapiens, UniProt P14920); assay: Inhibition of recombinant full length human DAO preincubated with compound for 20 mins measured after 4 hrs by Amplex red and horseradish peroxidase based fluorescence assay
[2] = target: D-amino-acid oxidase (Mus musculus, UniProt P18894); assay: Inhibition of full length mouse DAO transfected with CHO-K1 cells incubated for 30 mins by Amplex red and horseradish peroxidase based fluorescence assay; assay type: cell-based
D-amino-acid oxidase (Mus musculus, UniProt P18894), sequence (P18894 whole entry): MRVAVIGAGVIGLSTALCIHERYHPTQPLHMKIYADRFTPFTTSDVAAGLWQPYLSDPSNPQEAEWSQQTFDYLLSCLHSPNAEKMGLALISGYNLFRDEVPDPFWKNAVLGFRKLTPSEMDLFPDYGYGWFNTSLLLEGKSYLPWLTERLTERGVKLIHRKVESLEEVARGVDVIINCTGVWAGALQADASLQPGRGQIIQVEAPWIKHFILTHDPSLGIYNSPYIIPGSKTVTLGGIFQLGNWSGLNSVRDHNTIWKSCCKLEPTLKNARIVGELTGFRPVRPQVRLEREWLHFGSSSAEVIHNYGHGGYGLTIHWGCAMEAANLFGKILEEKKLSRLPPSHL

[3] = target: T1, D-amino-acid oxidase; assay: Inhibition of full length human DAO transfected in CHO-K1 cells incubated for 30 mins by Amplex red and horseradish peroxidase based fluorescence assay; assay type: cell-based
[4] = Apparent permeability across apical to basolateral membrane in MDCK-MDR1 cells by LC-MS/MS analysis; settings: dog
[5] = Efflux ratio of apparent permeability across basolateral to apical side over apical to basolateral side in MDCK-MDR1 cells; settings: dog
[6] = Oral bioavailability in C57/BL6 mouse at 2 mg/kg by LC-MS-MS analysis; assay type: ADME, organism-based; settings: in vivo
[7] = Volume of distribution at steady state in C57/BL6 mouse at 2 mg/kg, po or 0.5 mg/kg,iv by LC-MS-MS analysis; assay type: ADME, organism-based; settings: in vivo
[8] = Unbound brain-to-plasma concentration ratio in C57Bl/6 mouse at 2 mg/kg, po or 0.5 mg/kg,iv by LC-MS-MS analysis; assay type: ADME, organism-based; settings: mouse, brain, po, 2 mg/kg, BLD = below limit of detection
[9] = Unbound drug concentration in C57Bl/6 mouse brain at 2 mg/kg, po or 0.5 mg/kg,iv by LC-MS-MS analysis; assay type: ADME, organism-based; settings: mouse, in vivo, po, 2 mg/kg, BLD = below limit of detection
[10] = Dose normalized AUC in C57/BL6 mouse at 2 mg/kg, po by LC-MS-MS analysis; assay type: ADME, organism-based; settings: in vivo
[11] = Unbound drug concentration in C57Bl/6 mouse plasma at 2 mg/kg, po or 0.5 mg/kg,iv by LC-MS-MS analysis; assay type: ADME, organism-based; settings: mouse, in vivo, po, 2 mg/kg, BLD = below limit of detection
[12] = Brain to plasma permeability coefficient, Kp in C57Bl/6 mouse 2 mg/kg, po or 0.5 mg/kg,iv by LC-MS-MS analysis; assay type: ADME, organism-based; settings: mouse, brain, po, 2 mg/kg, BLD = below limit of detection

T1 sequence (P14920 whole entry): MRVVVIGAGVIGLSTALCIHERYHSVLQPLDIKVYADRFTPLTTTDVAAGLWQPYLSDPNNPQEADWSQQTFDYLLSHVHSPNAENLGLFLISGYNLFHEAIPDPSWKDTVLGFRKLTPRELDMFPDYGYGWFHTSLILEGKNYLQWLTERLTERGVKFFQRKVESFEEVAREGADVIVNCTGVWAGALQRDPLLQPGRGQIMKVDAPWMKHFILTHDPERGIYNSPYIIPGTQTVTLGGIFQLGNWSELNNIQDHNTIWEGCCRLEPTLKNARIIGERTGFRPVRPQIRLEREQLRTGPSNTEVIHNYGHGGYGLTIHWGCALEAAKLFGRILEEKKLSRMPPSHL

Row | SMILES | IC50 [1] [nM] | EC50 [2] [nM] | EC50 [3] [nM] | further results
1 | O=c1[nH]cc(SCc2ccc(C(F)F)cc2)[nH]c1=O | 70 | 590 | 450 | –
2 | O=c1[nH]cc(CCc2ccc(OC(F)F)nc2)[nH]c1=O | 670 | – | 8200 | –
3 | O=c1[nH]cc(CCc2ccccc2)[nH]c1=O | 340 | – | – | Papp A→B [4]: 4 ×10⁻⁶ cm/s; efflux ratio [5]: 0.4
4 | O=c1[nH]cc(CCc2cccc(Cl)c2)[nH]c1=O | 190 | – | 3500 | Papp A→B [4]: 6.8 ×10⁻⁶ cm/s; efflux ratio [5]: 0.9
5 | O=c1[nH]cc(SCc2ccc(C(F)(F)F)nc2)[nH]c1=O | 250 | 590 | 1100 | Papp A→B [4]: 2.4 ×10⁻⁶ cm/s; efflux ratio [5]: 0.4
6 | O=c1[nH]c(=O)n(O)cc1CCc1ccc(Cl)cc1 | – | – | – | bioavailability [6]: 9%; Vdss [7]: 1.9 L/kg; K(p,uu,brain) [8]: Bld; Fu [9]: Bld; Papp A→B [4]: 24 ×10⁻⁶ cm/s; AUC/dose [10]: 13.6 ng·h/mL; Fu [11]: Bld; Kp [12]: Bld
7 | O=c1[nH]cc([C@@H]2COc3cc(C(F)F)ccc3S2)[nH]c1=O | – | 290 | – | –
8 | O=c1[nH]cc(SCc2ccc(C(F)(F)F)cc2)[nH]c1=O | – | 240 | – | –
9 | O=c1[nH]cc(SCc2ccc(F)c(F)c2)[nH]c1=O | 300 | – | 810 | –
10 | O=c1[nH]cc(CSc2cnc3cc(Cl)ccc3c2)[nH]c1=O | 87 | 1400 | 1100 | –
11 | O=c1[nH]cc([C@@H]2COc3cc(Cl)ccc3S2)[nH]c1=O | 21 | 220 | 140 | –
12 | O=c1[nH]cc(CSc2ccc(Cl)cc2)[nH]c1=O | 130 | 390 | 680 | –
13 | O=c1[nH]cc(C2COc3ccccc3S2)[nH]c1=O (racemic) | 406 | 720 | 1760 | –
14 | CS(=O)(=O)c1ccc(SCc2c[nH]c(=O)c(=O)[nH]2)cc1 | – | 2300 | – | –
15 | Cc1n[nH]c2cc(CCc3c[nH]c(=O)c(=O)[nH]3)ccc12 | 640 | 4300 | – | –
16 | CS(=O)(=O)c1ccc2c(c1)OC[C@@H](c1c[nH]c(=O)c(=O)[nH]1)S2 | 25 | 1200 | 270 | –
17 | C[C@@]1(c2c[nH]c(=O)c(=O)[nH]2)COc2cc(C#N)ccc2S1 | 20 | 120 | 240 | –
18 | N#Cc1ccc(SCc2c[nH]c(=O)c(=O)[nH]2)cc1Cl | – | 560 | – | –
19 | CC1(c2c[nH]c(=O)c(=O)[nH]2)COc2ccccc2S1 (racemic) | – | 250 | – | –
20 | O=c1[nH]cc(SCc2ccc(Cl)cc2)[nH]c1=O | 150 | 510 | 400 | –
21 | N#Cc1ccc(CCc2c[nH]c(=O)c(=O)[nH]2)cc1 | 5800 | 1500 | 1800 | Papp A→B [4]: 3 ×10⁻⁶ cm/s; efflux ratio [5]: 0.6
22 | O=c1[nH]cc(CCc2cc(Cl)cc(Cl)c2)[nH]c1=O | 2500 | – | – | –
23 | N#Cc1ccc(CCc2c[nH]c(=O)c(=O)[nH]2)cc1F | 180 | – | 1900 | Papp A→B [4]: 3.3 ×10⁻⁶ cm/s; efflux ratio [5]: 0.5
24 | O=c1[nH]cc(CSc2ccc(S(F)(F)(F)(F)F)cc2)[nH]c1=O | 80 | 790 | 710 | –

Row | SMILES | IC50 [1] [nM] | EC50 [2] [nM] | EC50 [3] [nM] | further results
25 | O=c1[nH]c(=O)n(O)cc1CCc1ccccc1 | – | – | – | Papp A→B [4]: 15 ×10⁻⁶ cm/s
26 | CS(=O)(=O)c1ccc(CSc2c[nH]c(=O)c(=O)[nH]2)cc1 | 90 | 540 | 440 | –
27 | N#Cc1ccc(CSc2c[nH]c(=O)c(=O)[nH]2)cc1 | 43 | 310 | 250 | –
28 | O=c1[nH]cc([C@@H]2COc3cc(F)ccc3S2)[nH]c1=O | 94 | 540 | 560 | –
29 | C[C@@]1(c2c[nH]c(=O)c(=O)[nH]2)COc2cc(Cl)ccc2S1 | – | 100 | – | –
30 | N#Cc1ccc(CSc2c[nH]c(=O)c(=O)[nH]2)cc1F | – | 680 | – | –
31 | C[C@@]1(c2c[nH]c(=O)c(=O)[nH]2)COc2cc(S(C)(=O)=O)ccc2S1 | 51 | 1500 | 390 | –
32 | COc1ccc(CCc2c[nH]c(=O)c(=O)[nH]2)cc1 | 320 | – | – | –
33 | O=c1[nH]c(Cl)c(CCc2ccc(C(F)(F)F)cc2)[nH]c1=O | 1500 | – | 500 | –
34 | O=c1[nH]nc(Cc2ccc(Cl)cc2)cc1O | – | 4.2 | – | –
35 | N#Cc1ccc2c(c1)OC[C@@H](c1c[nH]c(=O)c(=O)[nH]1)S2 | 20 | 780 | 630 | Papp A→B [4]: 3.1 ×10⁻⁶ cm/s; efflux ratio [5]: 3.1
36 | C[C@@]1(c2c[nH]c(=O)c(=O)[nH]2)COc2cc(C(F)(F)F)ccc2S1 | – | 260 | – | –
37 | O=c1[nH]cc(CCc2ccc3ncccc3c2)[nH]c1=O | 580 | – | 8400 | –
38 | N#Cc1[nH]c(=O)c(=O)[nH]c1CCc1ccc(C(F)(F)F)cc1 | 250 | 340 | 540 | –
39 | O=c1[nH]cc(Cc2ccc(Cl)cc2)[nH]c1=O | 3300 | – | – | –
40 | O=c1[nH]cc(C2COc3cc(C(F)(F)F)ccc3S2)[nH]c1=O (stereo not drawn) | 25 | 430 | 290 | –
41 | O=c1[nH]cc(CCc2ccc(Cl)cc2)[nH]c1=O | 320 | – | – | –
42 | O=c1[nH]cc(CCc2ccc(-c3cc(O)n[nH]3)c(F)c2)[nH]c1=O | 320 | 1800 | 2900 | Papp A→B [4]: 21 ×10⁻⁶ cm/s; efflux ratio [5]: 0.1
43 | N#Cc1cccc(CSc2c[nH]c(=O)c(=O)[nH]2)c1 | 440 | – | 3800 | –
44 | O=c1[nH]cc(CCc2ccccc2Cl)[nH]c1=O | 6200 | – | – | –
45 | N#Cc1ccc(SCc2c[nH]c(=O)c(=O)[nH]2)cc1F | 46 | 970 | 440 | –
46 | Cc1[nH]c(=O)c(=O)[nH]c1CCc1ccc(C(F)(F)F)cc1 | 3900 | – | – | Papp A→B [4]: 4.8 ×10⁻⁶ cm/s; efflux ratio [5]: 2.4
47 | O=c1[nH]cc(SCc2ccc(S(F)(F)(F)(F)F)cc2)[nH]c1=O | – | 500 | – | –
